Experiment [1] has as its system Erythrocyte. The experiment in a line: Stimulation of ceramide formation in human erythrocytes at 2 uM after 48 hrs by FITC-labeled anticeramide antibody method. It counts as functional, cell-based.
Experiment [2] relates to Erythrocyte. Briefly: Induction of eryptosis in human erythrocytes assessed as reduction in cell volume measuring forward scatter at 1.5 uM after 48 hrs by FACS analysis. The experiment is classed as functional, cell-based. (A flow cytometer gives signals particle by particle.)
Experiment [3] has as its system Erythrocyte. The experiment in a line: Induction of eryptosis in human erythrocytes assessed as increase in cytosolic Ca2+ up to 2 uM after 48 hrs by Fluo-3/AM-based FACS analysis. The experiment is classed as functional, cell-based.
Experiment [4] relates to Erythrocyte. The experiment in a line: Induction of eryptosis in human erythrocytes assessed as phosphatidylserine exposure up to 2 uM after 48 hrs by annexin V staining-based FACS analysis. It counts as functional, cell-based.
Experiment [5] concerns Erythrocyte. Briefly: Induction of eryptosis in human erythrocytes assessed as reduction in cell volume measuring forward scatter up to 2 uM after 48 hrs by FACS analysis. It counts as functional, cell-based.
In experiment [6] the test system is Erythrocyte. Briefly: Hemolysis in human erythrocytes assessed as release of hemoglobin at 1 uM after 48 hrs by spectrophotometry. The experiment is classed as functional, cell-based.
Experiment [7] has as its system Erythrocyte. Briefly: Hemolysis in human erythrocytes assessed as release of hemoglobin up to 2 uM after 48 hrs by spectrophotometry. The experiment is classed as functional, cell-based.
Experiment [8] concerns Erythrocyte. Briefly: Induction of eryptosis in human erythrocytes assessed as phosphatidylserine exposure at 1 uM after 48 hrs by annexin V staining-based FACS analysis. The experiment is classed as functional, cell-based.
In experiment [9] the test system is Erythrocyte. Briefly: Induction of eryptosis in human erythrocytes assessed as cell membrane scrambling at 1 uM after 48 hrs by annexin V staining-based FACS analysis in nominal absence of extracellular Ca2+. The experiment is classed as functional.
The subject of experiment [10] is Erythrocyte. The experiment in a line: Induction of eryptosis in human erythrocytes assessed as increase in cytosolic Ca2+ at 0.5 uM after 48 hrs by Fluo-3/AM-based FACS analysis. The experiment is classed as functional, cell-based.
Experiment [11] deals with Erythrocyte. The experiment in a line: Induction of eryptosis in human erythrocytes assessed as cell membrane scrambling at 1 uM after 48 hrs by annexin V staining-based FACS analysis in presence of extracellular Ca2+. The experiment is classed as functional.

The source made the active and inactive calls. No cut-off for these calls is given here.

As for `CC1=CC(=O)c2c(O)cccc2C1=O`, the outcome in experiment [1], in experiment [2], in experiment [3], in experiment [4], in [5] and in experiment [6] was Active. In addition, the outcome in experiment [7], in [8], in experiment [10] and in experiment [11] was Active. The result in experiment [9] was inactive.

(Values after ChEMBL document CHEMBL2163202, “Enhanced Ca2+ entry, ceramide formation, and apoptotic death of erythrocytes triggered by plumbagin” (J Nat Prod, 2012).)
